Assay results as given in patent publication US20140221499A1, “NOVEL RODENT CONTROL AGENTS AND USES THEREOF” (priority 2011, published 2014).

Tests used:
[1] = target: T1, mouse TAAR3 (Mus musculus, UniProt Q5QD16); assay: TAAR3 CRE-SEAP reporter gene assay in transfected HEK293 cells; type: cell-based
T1 construct: Full Taar coding regions were cloned into pcDNA3.1-(Invitrogen); expressed in transfected cells; host or cells: HEK293
T1 sequence (Q5QD16 1-343): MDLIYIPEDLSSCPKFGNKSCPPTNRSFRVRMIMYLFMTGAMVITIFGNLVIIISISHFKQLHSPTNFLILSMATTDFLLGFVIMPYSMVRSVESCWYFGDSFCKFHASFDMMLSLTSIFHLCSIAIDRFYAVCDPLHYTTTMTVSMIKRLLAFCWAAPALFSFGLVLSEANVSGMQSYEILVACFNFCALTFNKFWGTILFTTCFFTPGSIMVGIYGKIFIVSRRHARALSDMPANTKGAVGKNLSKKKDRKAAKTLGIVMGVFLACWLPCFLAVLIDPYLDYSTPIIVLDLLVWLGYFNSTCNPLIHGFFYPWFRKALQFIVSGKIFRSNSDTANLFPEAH
Description: Reporter gene assays were performed on HEK293 cells transfected with mouse TAAR3 and CRE-SEAP.
TAAR functional assays. Reporter gene assays were performed as described (Liberles S D & Buck LB (2006) A second class of chemosensory receptors in the olfactory epithelium. Nature 442(7103):645-650) with the following minor modifications. Test urines were diluted in serum-free media containing penicillin G (100 Units/ml, Invitrogen) and streptomycin sulfate ([…], Invitrogen). SEAP activity is measured as fluorescence resulting from dephosphorylation of a substrate, 4-methylumbelliferyl phosphate. Fluorescence values were obtained using an EnVision plate reader (Perkin Elmer) and are reported directly without normalization. All TAARs, except mouse TAAR3, were expressed as fusion proteins with an N-terminal sequence of bovine rhodopsin (Krautwurst D, Yau K W, & Reed R R (1998) Identification of ligands for olfactory receptors by functional expression of a receptor library. Cell 95(7):917-926).

[2] = target: T2, mTAAR7f (Mus musculus, UniProt Q5QD08); assay: CRE-SEAP reporter gene assay in HEK293 cells transfected with mTAAR7f; type: cell-based; set-up: Full Taar coding regions were cloned into pcDNA3.1; expressed in transfected cells; host or cells: HEK293; conditions: FIG. 11B, not the mutant mTAAR7f-SS, functional with or without 'Rho tag', EC50 ± s.e.m., 4-parameter Hill equation
T2 sequence (Q5QD08 1-358): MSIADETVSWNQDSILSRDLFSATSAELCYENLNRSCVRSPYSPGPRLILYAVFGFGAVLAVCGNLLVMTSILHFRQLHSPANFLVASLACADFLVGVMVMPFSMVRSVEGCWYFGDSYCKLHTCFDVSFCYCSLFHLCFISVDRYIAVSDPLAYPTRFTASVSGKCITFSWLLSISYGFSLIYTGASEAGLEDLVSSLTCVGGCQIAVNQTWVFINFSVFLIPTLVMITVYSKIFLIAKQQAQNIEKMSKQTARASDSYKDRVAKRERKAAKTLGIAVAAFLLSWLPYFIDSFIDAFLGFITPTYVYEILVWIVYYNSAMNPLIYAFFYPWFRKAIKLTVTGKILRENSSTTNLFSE
Description: FIG. 11 illustrates the dose-dependent responses of TAARs to amines. HEK293 cells were cotransfected with plasmids encoding CRE-SEAP and rTAARs (a) or mTAARs (b), incubated with concentrations of ligands indicated, and assayed for reporter activity (triplicates±s.d.). EC50 values (±s.e.m, bottom right) were calculated using SigmaPlot (Systat Software) and a 4-parameter Hill equation.
Chemicals tested for the ability to activate mouse TAARs include those previously described (Liberles, S. D., and Buck, L. B. (2006) A second class of chemosensory receptors in the olfactory epithelium, Nature 442, 645-650), as well as the following mixes (5 μM of each indicated compounds). Mix 1: N,N-dimethyl-cyclohexylamine, N,N-dimethyl-phenylethylamine, creatinine, taurine. […]
Full Taar coding regions were cloned into pcDNA3.1-(Invitrogen) with or without a 5′ DNA extension of 69 bp encoding the first 20 amino acids of bovine rhodopsin followed by a cloning linker ([…]). […] Fluorescence was measured on an EnVision plate reader (Perkin Elmer) and SEAP activity graphed as relative fluorescence of a phosphatase substrate.
Here, we set out to identify agonists for additional mouse and rat TAARs. […] Transfected cells were incubated with test chemicals, and phosphatase activity was quantified with a fluorescent substrate as a reporter for TAAR activation. […]

**Q.** How did the EC50 [1] turn out when `NCCc1ccccc1` [2-phenylethylamine] was run?
**A.** The EC50 was roughly 100 µM.

**Q.** And the “reduced sensitivity of TAAR3 compared to TAAR4” value ([1]; TAAR3 vs TAAR4)?
**A.** Its value is 30 fold.

**Q.** For `CN(C)C1CCCCC1` [N,N-DIMETHYLCYCLOHEXYLAMINE, N,N-dimethylcyclohexylamine], which EC50 [2] is on record?
**A.** The EC50 was 0.44 ± 0.13 µM.
